Measured values taken from ChEMBL document CHEMBL5212743, “Selectivity Literature for EUbOPEN Chemogenomics Library wave 3” (2023).
pIC50, pKd: −log10 of the molar value. Values belong to the compound of their own block, whether it stands above or below them.

Experiments:
[1] = biological target: Calcium/calmodulin-dependent protein kinase type II subunit beta (Homo sapiens, UniProt Q13554); assay: Selectivity interaction (Upstate Kinase Profiler service (Millipore)) EUB0000056c CAMK2B
[2] = biological target: 5'-AMP-activated protein kinase catalytic subunit alpha-1 (Homo sapiens, UniProt Q13131); assay: Selectivity interaction (Upstate Kinase Profiler service (Millipore)) EUB0000056c PRKAA1
5'-AMP-activated protein kinase catalytic subunit alpha-1, sequence (Q13131 whole entry): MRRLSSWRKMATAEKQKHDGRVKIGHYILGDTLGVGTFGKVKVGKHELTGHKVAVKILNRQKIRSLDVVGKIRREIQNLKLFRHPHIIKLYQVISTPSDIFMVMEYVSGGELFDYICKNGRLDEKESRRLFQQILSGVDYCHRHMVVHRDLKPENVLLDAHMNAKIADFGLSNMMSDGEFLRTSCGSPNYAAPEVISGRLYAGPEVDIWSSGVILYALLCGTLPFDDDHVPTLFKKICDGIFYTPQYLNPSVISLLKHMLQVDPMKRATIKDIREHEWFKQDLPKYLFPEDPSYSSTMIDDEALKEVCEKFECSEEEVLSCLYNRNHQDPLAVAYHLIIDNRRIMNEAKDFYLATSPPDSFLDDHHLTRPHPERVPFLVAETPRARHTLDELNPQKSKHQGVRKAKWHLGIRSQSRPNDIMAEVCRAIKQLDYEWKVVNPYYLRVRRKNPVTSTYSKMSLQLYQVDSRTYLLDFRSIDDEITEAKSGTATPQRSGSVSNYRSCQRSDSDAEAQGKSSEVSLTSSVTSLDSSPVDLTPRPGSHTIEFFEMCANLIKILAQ

[3] = biological target: Muscarinic acetylcholine receptor M1 (Homo sapiens, UniProt P11229); assay: Selectivity interaction (Receptor panel (Novartis) ) EUB0000164c CHRM1
Muscarinic acetylcholine receptor M1, sequence (P11229 whole entry): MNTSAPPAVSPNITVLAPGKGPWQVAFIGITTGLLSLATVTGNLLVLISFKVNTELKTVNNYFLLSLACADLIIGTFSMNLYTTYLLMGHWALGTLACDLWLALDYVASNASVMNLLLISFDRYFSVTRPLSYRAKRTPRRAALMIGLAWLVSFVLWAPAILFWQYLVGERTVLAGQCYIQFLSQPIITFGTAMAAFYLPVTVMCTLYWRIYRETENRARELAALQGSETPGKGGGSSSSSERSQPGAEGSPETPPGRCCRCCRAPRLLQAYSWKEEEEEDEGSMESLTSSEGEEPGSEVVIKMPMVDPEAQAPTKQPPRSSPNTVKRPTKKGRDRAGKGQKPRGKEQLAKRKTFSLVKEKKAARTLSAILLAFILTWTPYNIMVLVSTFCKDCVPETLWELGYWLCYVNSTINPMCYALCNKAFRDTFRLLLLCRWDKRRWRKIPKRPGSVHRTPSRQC

[4] = biological target: Histamine H1 receptor (Homo sapiens, UniProt P35367); assay: Selectivity interaction (Receptor panel (Novartis) ) EUB0000164c HRH1
[5] = biological target: Tyrosine-protein kinase BAZ1B (Homo sapiens) (UniProt Q9UIG0); assay: Selectivity interaction (Bromodomain panel (DSF assay)) EUB0000164c BAZ1B
[6] = biological target: T1, Adenosine receptor A3 (Homo sapiens, UniProt P0DMS8); assay: Selectivity interaction (NIBR principial panel (12 GPCRs, 3 nuclear receptors, 3 transporters, and 7 other enzymes)) EUB0000253b ADORA3
T1 sequence (P0DMS8 whole entry): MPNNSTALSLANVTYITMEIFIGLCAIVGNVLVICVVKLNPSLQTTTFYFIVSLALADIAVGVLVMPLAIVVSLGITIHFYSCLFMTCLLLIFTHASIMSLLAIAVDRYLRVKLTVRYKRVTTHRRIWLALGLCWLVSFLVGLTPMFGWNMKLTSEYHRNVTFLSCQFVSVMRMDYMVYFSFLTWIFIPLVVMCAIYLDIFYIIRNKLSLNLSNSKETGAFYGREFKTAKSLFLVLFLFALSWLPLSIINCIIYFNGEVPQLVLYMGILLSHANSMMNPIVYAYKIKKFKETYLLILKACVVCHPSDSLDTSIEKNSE

[7] = biological target: D(3) dopamine receptor (Homo sapiens, UniProt P35462); assay: Selectivity interaction (NIBR principial panel (12 GPCRs, 3 nuclear receptors, 3 transporters, and 7 other enzymes)) EUB0000253b DRD3
D(3) dopamine receptor, sequence (P35462 whole entry): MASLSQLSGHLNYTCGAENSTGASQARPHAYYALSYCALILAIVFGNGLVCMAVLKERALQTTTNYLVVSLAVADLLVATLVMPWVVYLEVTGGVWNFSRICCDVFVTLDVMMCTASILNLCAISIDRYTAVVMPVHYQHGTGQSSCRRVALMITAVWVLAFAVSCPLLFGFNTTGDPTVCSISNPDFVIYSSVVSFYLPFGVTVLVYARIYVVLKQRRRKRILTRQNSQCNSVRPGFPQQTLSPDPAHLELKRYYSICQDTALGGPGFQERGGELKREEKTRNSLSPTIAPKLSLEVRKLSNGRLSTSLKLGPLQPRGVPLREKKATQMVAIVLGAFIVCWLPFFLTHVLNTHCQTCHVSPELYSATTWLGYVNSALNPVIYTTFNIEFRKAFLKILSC

[8] = biological target: Histamine H3 receptor (Homo sapiens, UniProt Q9Y5N1); assay: Selectivity interaction (NIBR principial panel (12 GPCRs, 3 nuclear receptors, 3 transporters, and 7 other enzymes)) EUB0000253b HRH3
[9] = biological target: T2, Bromodomain-containing protein 7 (Homo sapiens) (UniProt Q9NPI1); assay: Selectivity interaction (Bromodomain panel (DSF assay)) EUB0000253b BRD7
T2 sequence (whole entry): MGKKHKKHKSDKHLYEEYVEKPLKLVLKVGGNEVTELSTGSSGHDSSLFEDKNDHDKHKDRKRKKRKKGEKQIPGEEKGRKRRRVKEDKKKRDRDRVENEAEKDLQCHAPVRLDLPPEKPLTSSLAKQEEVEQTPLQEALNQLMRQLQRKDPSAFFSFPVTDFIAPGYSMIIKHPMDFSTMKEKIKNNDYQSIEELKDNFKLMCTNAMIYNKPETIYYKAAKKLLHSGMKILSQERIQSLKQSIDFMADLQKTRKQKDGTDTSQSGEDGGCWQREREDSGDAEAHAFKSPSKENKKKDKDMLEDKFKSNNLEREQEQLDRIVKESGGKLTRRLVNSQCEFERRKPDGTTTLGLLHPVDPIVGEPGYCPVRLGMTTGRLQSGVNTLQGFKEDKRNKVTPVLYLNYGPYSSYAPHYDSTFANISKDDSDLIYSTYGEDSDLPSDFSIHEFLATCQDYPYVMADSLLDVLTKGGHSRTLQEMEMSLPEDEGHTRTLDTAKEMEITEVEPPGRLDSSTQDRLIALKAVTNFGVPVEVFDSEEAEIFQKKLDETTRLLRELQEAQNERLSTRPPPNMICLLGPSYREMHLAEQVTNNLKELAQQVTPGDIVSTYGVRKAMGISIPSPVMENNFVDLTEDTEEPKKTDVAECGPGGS

[10] = biological target: T3, Chromatin remodeling regulator CECR2 (Homo sapiens, UniProt Q9BXF3); assay: Selectivity interaction (Bromodomain panel (DSF assay)) EUB0000253b CECR2
Target sequence in this assay (Q9BXF3 whole entry, looked up): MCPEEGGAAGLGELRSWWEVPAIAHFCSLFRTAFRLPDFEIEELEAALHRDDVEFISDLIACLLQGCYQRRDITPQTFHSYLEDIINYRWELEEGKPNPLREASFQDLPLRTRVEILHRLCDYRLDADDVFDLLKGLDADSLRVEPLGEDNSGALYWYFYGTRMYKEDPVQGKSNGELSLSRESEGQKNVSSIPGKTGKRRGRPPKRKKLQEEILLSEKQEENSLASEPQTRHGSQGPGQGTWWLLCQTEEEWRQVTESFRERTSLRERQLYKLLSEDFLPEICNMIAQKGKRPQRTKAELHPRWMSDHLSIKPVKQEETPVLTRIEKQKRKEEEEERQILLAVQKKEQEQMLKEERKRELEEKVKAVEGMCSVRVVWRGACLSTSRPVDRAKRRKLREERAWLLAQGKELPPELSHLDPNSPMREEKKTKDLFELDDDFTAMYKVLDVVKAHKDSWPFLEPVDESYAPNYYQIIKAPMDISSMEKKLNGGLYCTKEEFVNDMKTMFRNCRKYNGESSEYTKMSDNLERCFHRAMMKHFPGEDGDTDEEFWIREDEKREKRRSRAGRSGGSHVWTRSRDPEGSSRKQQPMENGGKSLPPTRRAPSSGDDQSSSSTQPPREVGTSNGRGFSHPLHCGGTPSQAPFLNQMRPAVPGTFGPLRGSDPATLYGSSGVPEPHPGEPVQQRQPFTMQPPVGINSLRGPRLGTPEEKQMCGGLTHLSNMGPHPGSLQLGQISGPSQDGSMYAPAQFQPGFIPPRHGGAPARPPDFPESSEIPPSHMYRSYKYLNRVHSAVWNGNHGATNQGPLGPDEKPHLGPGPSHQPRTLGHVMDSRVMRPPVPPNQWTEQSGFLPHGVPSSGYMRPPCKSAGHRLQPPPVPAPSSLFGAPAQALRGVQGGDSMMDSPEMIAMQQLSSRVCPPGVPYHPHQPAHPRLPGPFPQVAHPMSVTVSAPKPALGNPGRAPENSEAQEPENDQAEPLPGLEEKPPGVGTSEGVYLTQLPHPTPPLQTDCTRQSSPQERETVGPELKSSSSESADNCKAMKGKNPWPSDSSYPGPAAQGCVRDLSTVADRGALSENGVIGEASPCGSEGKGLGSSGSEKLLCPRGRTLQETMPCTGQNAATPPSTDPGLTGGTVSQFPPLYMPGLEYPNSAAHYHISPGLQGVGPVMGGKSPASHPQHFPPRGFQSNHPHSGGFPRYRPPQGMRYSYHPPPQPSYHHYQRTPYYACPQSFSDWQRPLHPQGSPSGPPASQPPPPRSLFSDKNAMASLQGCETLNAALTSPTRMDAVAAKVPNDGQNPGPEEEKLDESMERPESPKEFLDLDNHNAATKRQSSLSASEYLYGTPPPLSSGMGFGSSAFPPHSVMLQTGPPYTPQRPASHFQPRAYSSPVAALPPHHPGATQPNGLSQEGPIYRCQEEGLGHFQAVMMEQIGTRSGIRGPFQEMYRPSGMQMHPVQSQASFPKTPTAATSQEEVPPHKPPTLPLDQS

[11] = biological target: T3, Chromatin remodeling regulator CECR2; assay: Selectivity interaction (BROMOscan™ panel (DiscoverX)) EUB0000253b CECR2
Target sequence in this assay (Q9BXF3 whole entry): as the sequence (Q9BXF3 whole entry, looked up) above

[12] = biological target: T3, Chromatin remodeling regulator CECR2; assay: Selectivity interaction (NanoBRET assay (HEK293T cells)) EUB0000253b CECR2
Target sequence in this assay (Q9BXF3 whole entry): as the sequence (Q9BXF3 whole entry, looked up) above

[13] = biological target: T4, Histone acetyltransferase KAT2A (Homo sapiens, UniProt Q92830); assay: Selectivity interaction (BROMOscan™ panel (DiscoverX)) EUB0000253b KAT2A
T4 sequence (Q92830 whole entry): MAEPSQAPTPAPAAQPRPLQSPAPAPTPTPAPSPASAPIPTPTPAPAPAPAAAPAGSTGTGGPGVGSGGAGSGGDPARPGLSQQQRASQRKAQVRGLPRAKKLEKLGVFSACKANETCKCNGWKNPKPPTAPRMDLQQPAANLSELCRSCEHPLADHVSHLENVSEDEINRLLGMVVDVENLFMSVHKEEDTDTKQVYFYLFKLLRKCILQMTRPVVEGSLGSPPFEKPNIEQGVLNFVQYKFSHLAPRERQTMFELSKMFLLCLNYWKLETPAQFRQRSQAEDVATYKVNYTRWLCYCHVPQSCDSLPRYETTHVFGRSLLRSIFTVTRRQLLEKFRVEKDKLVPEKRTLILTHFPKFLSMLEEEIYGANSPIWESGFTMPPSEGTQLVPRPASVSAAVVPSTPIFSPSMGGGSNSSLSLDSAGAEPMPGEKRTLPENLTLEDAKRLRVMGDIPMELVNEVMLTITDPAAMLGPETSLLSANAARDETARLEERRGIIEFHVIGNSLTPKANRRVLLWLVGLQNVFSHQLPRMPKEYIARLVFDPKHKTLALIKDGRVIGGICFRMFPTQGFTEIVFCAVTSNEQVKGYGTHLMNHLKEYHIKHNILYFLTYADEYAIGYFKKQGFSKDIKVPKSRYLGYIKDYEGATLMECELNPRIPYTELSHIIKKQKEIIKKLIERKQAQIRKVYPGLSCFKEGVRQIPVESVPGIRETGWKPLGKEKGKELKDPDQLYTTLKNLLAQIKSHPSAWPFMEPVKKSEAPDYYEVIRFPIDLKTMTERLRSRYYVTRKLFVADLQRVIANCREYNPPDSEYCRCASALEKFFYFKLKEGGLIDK

[14] = biological target: T4, Histone acetyltransferase KAT2A; assay: Selectivity interaction (NanoBRET assay (HEK293T cells)) EUB0000253b KAT2A
[15] = biological target: T5, Histone acetyltransferase KAT2B (Homo sapiens, UniProt Q92831); assay: Selectivity interaction (Bromodomain panel (DSF assay)) EUB0000253b KAT2B
Target sequence in this assay (Q92831 whole entry, looked up): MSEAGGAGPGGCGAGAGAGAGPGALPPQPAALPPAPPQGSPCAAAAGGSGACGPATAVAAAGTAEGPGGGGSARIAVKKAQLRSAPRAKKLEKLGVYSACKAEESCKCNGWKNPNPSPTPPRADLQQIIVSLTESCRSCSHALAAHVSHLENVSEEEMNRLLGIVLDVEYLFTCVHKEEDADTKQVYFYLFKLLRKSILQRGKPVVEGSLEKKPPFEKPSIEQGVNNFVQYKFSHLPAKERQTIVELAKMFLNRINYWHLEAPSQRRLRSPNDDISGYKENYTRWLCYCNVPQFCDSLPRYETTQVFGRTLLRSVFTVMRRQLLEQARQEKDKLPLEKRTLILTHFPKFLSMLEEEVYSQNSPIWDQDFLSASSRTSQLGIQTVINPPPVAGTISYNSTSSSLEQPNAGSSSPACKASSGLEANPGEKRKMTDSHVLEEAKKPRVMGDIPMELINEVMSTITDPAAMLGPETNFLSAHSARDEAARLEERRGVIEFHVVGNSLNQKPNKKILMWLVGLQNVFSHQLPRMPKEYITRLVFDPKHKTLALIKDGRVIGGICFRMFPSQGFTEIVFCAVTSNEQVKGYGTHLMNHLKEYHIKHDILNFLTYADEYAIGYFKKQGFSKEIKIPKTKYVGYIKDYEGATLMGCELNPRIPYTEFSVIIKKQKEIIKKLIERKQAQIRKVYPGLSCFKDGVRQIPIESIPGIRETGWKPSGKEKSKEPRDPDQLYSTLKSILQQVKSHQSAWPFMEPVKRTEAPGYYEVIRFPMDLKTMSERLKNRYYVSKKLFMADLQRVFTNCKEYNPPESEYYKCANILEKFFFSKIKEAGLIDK

[16] = biological target: T5, Histone acetyltransferase KAT2B; assay: Selectivity interaction (BROMOscan™ panel (DiscoverX)) EUB0000253b KAT2B
Target sequence in this assay (Q92831 whole entry): as the sequence (Q92831 whole entry, looked up) above

[17] = biological target: T5, Histone acetyltransferase KAT2B; assay: Selectivity interaction (NanoBRET assay (HEK293T cells)) EUB0000253b KAT2B
Target sequence in this assay (Q92831 whole entry): as the sequence (Q92831 whole entry, looked up) above

[18] = biological target: T6, Nucleosome-remodeling factor subunit BPTF (Homo sapiens, UniProt Q12830)
[19] = biological target: T6, Nucleosome-remodeling factor subunit BPTF; remark: listed apart in the source

pIC50 [1]: 7.15
pIC50 [2]: 6.93
SMILES: Cc1ccc(-c2ccc3c(ccc4sc5c(c43)NC[C@@H](C)NC5=O)n2)cn1

pIC50 [3]: 4.89
pIC50 [4]: 4.89
dTm [5]: 0.7 K
SMILES: CC(C)NC(=O)N1CC[C@H](NC2=Nc3cc(F)ccc3N(CC(F)F)c3ccc(Cl)cc32)C1

pIC50 [6]: 5.31
pIC50 [7]: 5.46
pIC50 [8]: 5.40
dTm [9]: 1.95 K
dTm [10]: 2.48 K
pKd [11]: 7.18
pIC50 [12]: < 5.00
pKd [13]: 7.21
pIC50 [14]: < 5.00
dTm [15]: 1.53 K
pKd [16]: 7.13
pIC50 [17]: < 5.00
pIC50 [18]: 7.52
dTm [19]: 6.16 K
SMILES: Cc1c(Nc2ccc(S(=O)(=O)N3CCN(C)CC3)cc2F)nc2ccc(-c3cnn(C4CC4)c3)cn2c1=O
